Assay results taken from ChEMBL document CHEMBL1201862, “PubChem BioAssay data set” (2004).
One block for each molecule: values may come before it. Active and inactive are the calls of the source.

Experiments:
[1] = target: T1, Tyrosine-protein phosphatase non-receptor type 7 (Homo sapiens, UniProt P35236); experiment: HePTP (PTPN7) phosphatase inhibitor potency, SAR follow-up, biochemical, set 2 (AID 449736); type: functional
T1 sequence (P35236 whole entry): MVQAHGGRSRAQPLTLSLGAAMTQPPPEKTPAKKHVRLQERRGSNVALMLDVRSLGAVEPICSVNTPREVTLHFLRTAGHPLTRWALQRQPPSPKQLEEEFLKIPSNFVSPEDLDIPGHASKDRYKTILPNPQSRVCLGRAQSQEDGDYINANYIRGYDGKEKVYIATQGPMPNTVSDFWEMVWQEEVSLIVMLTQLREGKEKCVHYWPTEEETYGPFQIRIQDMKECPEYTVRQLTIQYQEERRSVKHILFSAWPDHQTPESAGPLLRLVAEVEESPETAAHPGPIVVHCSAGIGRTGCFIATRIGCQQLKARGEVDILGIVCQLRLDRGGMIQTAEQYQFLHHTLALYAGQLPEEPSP

[2] = target: T2, Tyrosine-protein phosphatase non-receptor type 22 (Homo sapiens, UniProt Q9Y2R2); experiment: SAR LYP1 Fluorescent Assay using pCAP substrate for In Vitro dose response studies - Set 2. [Related pubchem assays (depositor defined):AID1779, AID1784, AID2135, AID449727]; type: functional
T2 sequence (Q9Y2R2 whole entry): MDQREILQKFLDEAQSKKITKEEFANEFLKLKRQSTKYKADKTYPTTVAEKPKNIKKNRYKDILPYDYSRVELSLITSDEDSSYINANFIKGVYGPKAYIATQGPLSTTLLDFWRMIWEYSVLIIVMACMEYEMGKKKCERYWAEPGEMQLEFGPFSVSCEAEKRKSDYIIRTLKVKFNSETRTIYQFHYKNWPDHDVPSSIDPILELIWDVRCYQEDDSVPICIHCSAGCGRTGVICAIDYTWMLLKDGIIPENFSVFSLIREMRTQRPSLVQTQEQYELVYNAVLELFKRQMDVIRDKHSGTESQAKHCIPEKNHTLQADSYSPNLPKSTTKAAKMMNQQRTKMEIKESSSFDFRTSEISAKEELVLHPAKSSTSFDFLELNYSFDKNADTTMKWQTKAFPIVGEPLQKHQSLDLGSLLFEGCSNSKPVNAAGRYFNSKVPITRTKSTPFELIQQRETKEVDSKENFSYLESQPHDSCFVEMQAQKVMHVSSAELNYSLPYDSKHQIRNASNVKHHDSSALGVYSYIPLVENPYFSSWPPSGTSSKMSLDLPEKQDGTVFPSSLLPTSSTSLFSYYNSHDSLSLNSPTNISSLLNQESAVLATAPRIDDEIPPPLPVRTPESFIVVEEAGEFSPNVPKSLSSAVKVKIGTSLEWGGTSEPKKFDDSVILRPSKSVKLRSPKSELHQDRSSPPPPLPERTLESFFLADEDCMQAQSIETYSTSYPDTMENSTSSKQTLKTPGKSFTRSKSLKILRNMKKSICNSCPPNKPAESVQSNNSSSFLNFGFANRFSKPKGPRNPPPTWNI

[3] = target: T2, Tyrosine-protein phosphatase non-receptor type 22; experiment: LYP (PTPN22) phosphatase inhibitor potency, SAR follow-up, biochemical, pCAP fluorogenic substrate, fluorescence, set 3 (AID 449727); type: functional
[4] = target: T2, Tyrosine-protein phosphatase non-receptor type 22; experiment: SAR LYP1 Fluorescent Assay using OMFP substrate for In Vitro dose response studies - Set 2. [Related pubchem assays (depositor defined):AID1779, AID1784, AID2140, AID449726, AID488869]; type: functional
[5] = target: T2, Tyrosine-protein phosphatase non-receptor type 22; experiment: SAR LYP1 Fluorescent Assay using OMFP substrate for In Vitro dose response studies - Set 3. [Related pubchem assays (depositor defined):AID1779, AID1784, AID2140, AID2686]; type: functional
[6] = target: Dual specificity tyrosine-phosphorylation-regulated kinase 1A (Rattus norvegicus, UniProt Q63470); type: biochemical, Homo sapiens
[7] = target: T3, Alkaline phosphatase, tissue-nonspecific isozyme (Homo sapiens, UniProt P05186); experiment: TNAP enzyme inhibition by screening hits, dose response, selectivity assay for mouse IAP inhibitor project, biochemical, human TNAP, uHTS hits (AID 488906); type: functional
T3 sequence (P05186 whole entry): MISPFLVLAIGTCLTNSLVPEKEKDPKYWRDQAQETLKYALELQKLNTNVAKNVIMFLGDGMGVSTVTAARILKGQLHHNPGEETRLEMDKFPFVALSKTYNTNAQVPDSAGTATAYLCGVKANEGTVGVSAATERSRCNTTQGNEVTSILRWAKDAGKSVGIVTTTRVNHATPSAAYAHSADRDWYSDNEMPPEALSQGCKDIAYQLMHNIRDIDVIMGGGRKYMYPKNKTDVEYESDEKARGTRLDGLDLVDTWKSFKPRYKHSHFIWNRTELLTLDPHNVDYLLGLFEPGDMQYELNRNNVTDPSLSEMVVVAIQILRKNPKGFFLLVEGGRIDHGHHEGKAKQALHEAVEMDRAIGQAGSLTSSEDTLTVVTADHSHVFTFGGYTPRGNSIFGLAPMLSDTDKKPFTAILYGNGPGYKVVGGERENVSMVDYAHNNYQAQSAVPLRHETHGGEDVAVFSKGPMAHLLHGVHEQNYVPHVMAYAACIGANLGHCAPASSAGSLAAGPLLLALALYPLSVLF

Insulin-degrading enzyme = target: T4, Insulin-degrading enzyme (Homo sapiens, UniProt P14735); experiment: Dose Response: Fluorescence polarization-based cell-based high throughput dose response assay for inhibitors of insulin-degrading enzyme (IDE). [Related pubchem assays: 434962 (Primary screen (IDE inhibitors in singlicate)), 449730 (Counterscreen (Cytotoxicity in triplicate)), 435028 (Confirmation (IDE inhibitors in triplicate)), 434984 (Summary …; type: functional
T4 sequence (P14735 whole entry): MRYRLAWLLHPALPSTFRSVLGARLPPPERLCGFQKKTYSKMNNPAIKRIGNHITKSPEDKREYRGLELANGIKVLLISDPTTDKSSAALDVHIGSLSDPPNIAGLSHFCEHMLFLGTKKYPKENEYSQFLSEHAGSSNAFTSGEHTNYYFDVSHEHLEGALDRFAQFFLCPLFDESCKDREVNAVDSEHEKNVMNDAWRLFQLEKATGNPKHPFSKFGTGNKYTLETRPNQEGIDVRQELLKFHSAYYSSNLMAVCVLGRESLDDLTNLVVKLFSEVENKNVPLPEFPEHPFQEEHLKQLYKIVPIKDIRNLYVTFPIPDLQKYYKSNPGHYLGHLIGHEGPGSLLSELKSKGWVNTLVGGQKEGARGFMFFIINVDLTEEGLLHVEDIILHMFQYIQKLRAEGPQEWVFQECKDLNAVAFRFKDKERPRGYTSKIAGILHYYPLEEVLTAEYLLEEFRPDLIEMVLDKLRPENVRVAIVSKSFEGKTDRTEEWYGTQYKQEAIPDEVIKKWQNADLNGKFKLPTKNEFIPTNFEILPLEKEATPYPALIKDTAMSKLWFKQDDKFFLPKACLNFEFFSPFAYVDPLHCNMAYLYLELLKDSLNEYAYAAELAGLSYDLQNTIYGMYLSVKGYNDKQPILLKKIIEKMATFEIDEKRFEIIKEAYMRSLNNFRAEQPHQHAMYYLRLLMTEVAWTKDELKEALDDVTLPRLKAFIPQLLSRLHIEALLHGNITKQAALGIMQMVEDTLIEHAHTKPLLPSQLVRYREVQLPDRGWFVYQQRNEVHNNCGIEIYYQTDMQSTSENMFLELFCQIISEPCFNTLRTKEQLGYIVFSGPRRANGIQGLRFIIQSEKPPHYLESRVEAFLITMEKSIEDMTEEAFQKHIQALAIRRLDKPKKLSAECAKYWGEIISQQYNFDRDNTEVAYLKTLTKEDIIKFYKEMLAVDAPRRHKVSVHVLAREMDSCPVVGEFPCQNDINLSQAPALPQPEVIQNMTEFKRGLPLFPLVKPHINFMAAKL

[8] = target: Intestinal-type alkaline phosphatase (Homo sapiens, UniProt P09923); experiment: inhibition of human intestinal alkaline phosphatase – biochemical, dose response (AID 488876); type: functional
[9] = target: Intestinal-type alkaline phosphatase (Mus musculus, UniProt P24822); experiment: PubChem AID 488785; type: functional
[10] = Counterscreen for IDE inhibitors: Luminescence-based cell-based high throughput dose response assay to identify compounds that are cytotoxic to HEK cells. [Related pubchem assays: 434962 (Primary screen (IDE inhibitors in singlicate)), 449730 (Counterscreen (Cytotoxicity in triplicate)), 435028 (Confirmation (IDE inhibitors in triplicate)) …; type: functional; details: HEK293
[11] = target: T5, G-protein coupled receptor 55 (Homo sapiens, UniProt Q9Y2T6); experiment: SAR analysis of selective Agonists of GPR55 using an Image-Based Assay. [Related pubchem assays (depositor defined):AID1961, AID1965]; type: functional
Cannabinoid receptor 2 [12] = target: T6, Cannabinoid receptor 2 (Homo sapiens, UniProt P34972); experiment: SAR analysis of agonists of the Cannabinoid Receptor 2 using an Image-Based Assay - Set 2. [Related pubchem assays (depositor defined):AID1961, AID1965]; type: functional
[13] = target: T5, G-protein coupled receptor 55; experiment: GPR55 agonists via beta-arrestin recruitment, primary screen, imaging, U2OS cells, beta-arrestin-GFP redistribution (AID 1961); type: functional
Cannabinoid receptor 2 [14] = target: T6, Cannabinoid receptor 2; experiment: SAR analysis of antagonists of the Cannabinoid Receptor 2 using an Image-Based Assay - Set 2. [Related pubchem assays (depositor defined):AID1961, AID1965]; type: functional
Cannabinoid receptor 1 = Cannabinoid receptor 1 (Homo sapiens, UniProt P21554); experiment: SAR analysis of antagonists of the Cannabinoid Receptor 1 using an Image-Based Assay. [Related pubchem assays (depositor defined):AID1961, AID1965]; type: functional
Phospholipase A2 = Phospholipase A2 (Homo sapiens, UniProt P04054); type: functional;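 also: confirmatory dose-response counterscreen on phospholipase A2, testing hits that came from an ultra-high-throughput screen for ATG4B inhibitors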
[15] = target: T7, Heat shock factor protein 1 (Mus musculus, UniProt P38532); experiment: inhibition of MG132-induced HSE-luciferase signal, confirmation, cell-based, NIH3T3, luminescence, dose retest (AID 2382); type: functional;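 also: NIH3T3 fibroblasts with HSF1-driven luciferase reporter stressed by proteasome inhibitor MG132; luminescence from HSF1-driven luciferase expression after 8 hours of MG132 stress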
T7 sequence (P38532 whole entry): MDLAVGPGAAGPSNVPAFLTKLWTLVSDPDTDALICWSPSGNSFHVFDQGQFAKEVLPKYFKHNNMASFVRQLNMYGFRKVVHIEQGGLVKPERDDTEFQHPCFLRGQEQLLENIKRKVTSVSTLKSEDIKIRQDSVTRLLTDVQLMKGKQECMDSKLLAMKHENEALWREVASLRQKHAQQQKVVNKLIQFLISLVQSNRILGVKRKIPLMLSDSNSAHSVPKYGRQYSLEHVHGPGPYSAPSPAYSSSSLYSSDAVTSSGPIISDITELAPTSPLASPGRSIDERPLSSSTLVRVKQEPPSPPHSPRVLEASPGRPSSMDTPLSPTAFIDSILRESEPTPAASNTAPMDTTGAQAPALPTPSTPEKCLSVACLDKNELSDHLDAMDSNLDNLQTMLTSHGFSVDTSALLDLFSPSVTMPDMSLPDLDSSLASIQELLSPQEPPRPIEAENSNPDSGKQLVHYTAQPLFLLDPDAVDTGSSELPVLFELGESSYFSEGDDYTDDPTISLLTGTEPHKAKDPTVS

Cysteine protease ATG4B = target: T8, Cysteine protease ATG4B (Homo sapiens, UniProt Q9Y4P1); type: functional;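 also: Fluorescence-based dose-response confirmation assay measuring inhibition of ATG4B activity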
T8 sequence (Q9Y4P1 whole entry): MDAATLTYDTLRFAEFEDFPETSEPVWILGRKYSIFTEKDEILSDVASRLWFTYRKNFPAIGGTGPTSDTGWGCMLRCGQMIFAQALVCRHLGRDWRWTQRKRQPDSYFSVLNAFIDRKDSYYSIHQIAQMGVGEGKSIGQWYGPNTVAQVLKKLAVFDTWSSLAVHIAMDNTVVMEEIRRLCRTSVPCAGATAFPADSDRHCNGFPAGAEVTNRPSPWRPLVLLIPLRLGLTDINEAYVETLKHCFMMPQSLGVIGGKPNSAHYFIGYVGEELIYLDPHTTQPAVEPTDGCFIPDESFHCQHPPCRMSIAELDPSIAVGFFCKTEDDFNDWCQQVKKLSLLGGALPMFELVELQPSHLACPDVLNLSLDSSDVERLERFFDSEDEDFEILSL

T6 sequence (P34972 whole entry): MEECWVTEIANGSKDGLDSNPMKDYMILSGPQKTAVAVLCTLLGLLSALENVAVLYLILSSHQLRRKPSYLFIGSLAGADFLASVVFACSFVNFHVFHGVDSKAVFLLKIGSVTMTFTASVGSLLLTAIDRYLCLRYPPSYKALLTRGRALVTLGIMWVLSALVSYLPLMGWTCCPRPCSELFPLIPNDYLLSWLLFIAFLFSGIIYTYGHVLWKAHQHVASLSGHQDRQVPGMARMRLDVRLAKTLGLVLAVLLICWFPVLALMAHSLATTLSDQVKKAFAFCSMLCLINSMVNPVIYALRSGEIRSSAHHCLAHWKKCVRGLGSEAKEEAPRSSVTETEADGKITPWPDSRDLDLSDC
T5 sequence (Q9Y2T6 whole entry): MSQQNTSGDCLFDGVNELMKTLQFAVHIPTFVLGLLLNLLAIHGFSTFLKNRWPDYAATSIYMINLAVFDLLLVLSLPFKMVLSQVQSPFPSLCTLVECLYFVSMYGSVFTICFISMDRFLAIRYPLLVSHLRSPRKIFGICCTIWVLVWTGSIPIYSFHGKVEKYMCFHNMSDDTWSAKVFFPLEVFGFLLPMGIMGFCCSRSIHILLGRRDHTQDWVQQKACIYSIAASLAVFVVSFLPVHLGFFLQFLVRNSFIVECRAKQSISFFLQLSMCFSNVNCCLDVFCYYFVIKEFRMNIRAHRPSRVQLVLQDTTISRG
Chain of Phospholipase A2 (P04054 whole entry): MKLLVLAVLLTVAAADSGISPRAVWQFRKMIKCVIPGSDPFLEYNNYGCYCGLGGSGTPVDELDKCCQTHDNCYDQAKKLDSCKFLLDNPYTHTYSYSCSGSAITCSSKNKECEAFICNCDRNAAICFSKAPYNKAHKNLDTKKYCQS
Chain of Intestinal-type alkaline phosphatase (Mus musculus, UniProt P24822) (P24822 whole entry): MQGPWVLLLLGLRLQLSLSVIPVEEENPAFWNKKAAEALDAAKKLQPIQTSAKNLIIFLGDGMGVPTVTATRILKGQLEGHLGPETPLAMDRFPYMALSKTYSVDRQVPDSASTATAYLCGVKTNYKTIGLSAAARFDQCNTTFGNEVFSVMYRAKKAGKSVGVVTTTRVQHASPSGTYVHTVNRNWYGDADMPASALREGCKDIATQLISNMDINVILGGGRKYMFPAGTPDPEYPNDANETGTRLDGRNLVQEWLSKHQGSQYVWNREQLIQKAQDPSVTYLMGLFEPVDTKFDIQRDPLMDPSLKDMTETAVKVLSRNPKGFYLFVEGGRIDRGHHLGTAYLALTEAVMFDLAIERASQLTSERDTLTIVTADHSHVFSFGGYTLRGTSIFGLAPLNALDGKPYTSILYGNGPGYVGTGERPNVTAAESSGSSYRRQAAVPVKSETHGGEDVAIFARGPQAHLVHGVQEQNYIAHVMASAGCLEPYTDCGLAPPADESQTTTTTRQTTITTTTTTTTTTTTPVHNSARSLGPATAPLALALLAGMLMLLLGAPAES
Chain of Cannabinoid receptor 1 (P21554 whole entry): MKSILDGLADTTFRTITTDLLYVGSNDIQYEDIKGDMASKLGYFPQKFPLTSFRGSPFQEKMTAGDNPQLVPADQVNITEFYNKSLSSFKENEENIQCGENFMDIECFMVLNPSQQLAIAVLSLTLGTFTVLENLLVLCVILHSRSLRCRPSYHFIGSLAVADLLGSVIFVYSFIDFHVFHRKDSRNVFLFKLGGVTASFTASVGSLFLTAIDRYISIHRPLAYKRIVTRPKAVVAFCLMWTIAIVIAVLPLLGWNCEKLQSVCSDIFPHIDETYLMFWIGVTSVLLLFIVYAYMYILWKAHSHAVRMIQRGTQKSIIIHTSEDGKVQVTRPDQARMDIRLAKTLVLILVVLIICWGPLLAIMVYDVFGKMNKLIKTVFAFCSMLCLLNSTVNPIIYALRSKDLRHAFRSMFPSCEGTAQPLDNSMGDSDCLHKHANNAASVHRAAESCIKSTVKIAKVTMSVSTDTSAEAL
Chain of Intestinal-type alkaline phosphatase (Homo sapiens, UniProt P09923) (P09923 whole entry): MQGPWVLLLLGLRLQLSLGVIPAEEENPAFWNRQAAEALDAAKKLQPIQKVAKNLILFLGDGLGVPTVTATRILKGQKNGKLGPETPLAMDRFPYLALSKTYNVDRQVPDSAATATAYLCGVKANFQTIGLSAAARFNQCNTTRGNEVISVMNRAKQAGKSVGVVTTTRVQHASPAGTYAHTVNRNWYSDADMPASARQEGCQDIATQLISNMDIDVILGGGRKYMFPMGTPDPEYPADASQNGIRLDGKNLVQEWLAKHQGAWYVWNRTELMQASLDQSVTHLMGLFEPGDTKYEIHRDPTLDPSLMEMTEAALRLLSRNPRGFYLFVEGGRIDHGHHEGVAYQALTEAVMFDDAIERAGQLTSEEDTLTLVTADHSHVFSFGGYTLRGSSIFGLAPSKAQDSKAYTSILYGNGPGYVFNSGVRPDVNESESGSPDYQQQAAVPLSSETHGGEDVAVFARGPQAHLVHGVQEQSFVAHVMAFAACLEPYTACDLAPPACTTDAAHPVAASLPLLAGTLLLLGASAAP

IC50 [1]: > 100 µM (inactive)
IC50 [2]: 55 µM (active)
IC50 [3]: 44.8 µM (active)
IC50 [4]: > 100 µM (inactive)
IC50 [5]: > 100 µM (inactive)
Structure (SMILES): NC1=NC(=O)/C(=C/c2ccc(OCC(=O)O)cc2)S1

Structure (SMILES): COc1cc(/C=N/N2C(=O)CSC2=S)ccc1O
AC50 [6]: 9.55 µM (active)
IC50 [7]: > 100 µM (inactive)
IC50 (Insulin-degrading enzyme): > 6.22 µM (active)
IC50 [8]: 21.3 µM (active)
IC50 [9]: 2.2 µM (active)
IC50 [10]: > 55.7 µM (not active)

EC50 [11]: 0.865 µM (active)
EC50 (Cannabinoid receptor 2 [12]): > 32 µM (inactive)
EC50 [13]: 0.806 µM (active)
IC50 (Cannabinoid receptor 2 [14]): > 32 µM (inactive)
IC50 (Cannabinoid receptor 1): > 32 µM (inactive)
IC50 (Phospholipase A2): 10 µM (active)
EC50 [15]: > 195 µM (not active)
IC50 (Cysteine protease ATG4B): 14.7 µM (active)
Structure (SMILES): COc1cc2c(cc1NC(=O)C(C)Sc1ccc(NC(C)=O)cc1)oc1ccccc12 (centres undefined)
